In patent US20230391727A1, “ANALOGUES OF PENTAMIDINE AND METHODS FOR TREATING INFECTIONS” (Auransa Inc., priority 2020, published 2023):

Legend:
Test in all cases: Checkerboard/MIC assay with rifampicin
Format in all cases: cell-based
[1] = system: A. baumannii (ATCC 17978); conditions: Acinetobacter baumannii ATCC 17978
Description: (§1) The 17 test strains/isolates were: (1) Serratia marcescens (ATCC 13880); (2) Salmonella typhimurium (ATCC 13311); (3) Salmonella choleraesuis (ATCC 10708); (4) Acinetobacter baumannii (ATCC BAA-1605); (5) A. baumannii (ATCC 17978); (6) A. baumannii (FDA-CDC AR-BANK#0088); (7) Citrobacter freundii (ATCC 8090); (8) Pseudomonas aeruginosa (BCCM 27647); (9) P. aeruginosa (BCCM 27648); (10) Escherichia coli (ATCC 25922); (11) E. coli (ATCC 10536); (12) Stenotrophomonas maltophilia (ATCC 13637); (13) Enterobacter cloacae (ATCC BAA-1143); (14) E. cloacae (ATCC 13047); (15) E. aerogenes (ATCC 13048); (16) Klebsiella pneumoniae (NCTC 13438); and (17) Klebsiella pneumoniae (FDA-CDC AR-BANK#0160). These bacterial strains were obtained from the American Type Culture Collection (ATCC, Rockville, MD, USA); Belgian Coordinated Collections of Microorganisms; The Culture Collections of Public Health England, UK; and FDA-CDC anticimrobial Resistance Isolate Bank, USA, and cryopreserved as single-use frozen working stock cultures which were stored at −80° C.
(§2) The 17 test strains were grown on nutrient agar or tryptic soy agar (TSA) medium as below. Colonies were suspended in phosphate buffered saline (PBS) pH 7.4. The absorbance of the bacterial suspension was measured with a spectrophotometer at OD620nm, and then the suspension was adjusted to 1-2×10^8 CFU/mL in PBS. The adjusted suspension was further diluted 1:500 in cation-adjusted Mueller-Hinton Broth. Each well contained approximately 5×10^5 CFU/mL. […] The testing inoculum was prepared within minutes before adding to wells of the test plate.
(§3) Compound 3 was tested in 8 points by two-fold serial titrations from 100 to 0.78 μg/mL. […] Assay plates were incubated and MIC endpoints were read as complete inhibition of visual growth. The checkerboard combination analysis was performed following the MIC testing protocol to identify potential synergistic, indifferent or antagonistic interactions. The analysis also included each test substance alone at the same concentration ranges.
(§4) FIC (Fraction Inhibitory Concentration) and FIC Index (FICI) values for each test condition and the average of FICI values of all pairwise combinations were calculated to determine if synergy or antagonism existed between the two substances. The FIC index was determined by calculating the sum of the ratios of MICs (minimum inhibitory concentrations) for both substances. […] Synergy is defined as the FICI (Σ)≤0.5; additivity or indifference are defined as the FICI (Σ)>0.5 to ≤4; antagonism is defined as the FICI (Σ)>4. The two fold of highest test article concentration was used for FIC value calculations in the circumstances where MIC values were greater than the highest test article concentration.

[2] = system: A. baumannii (FDA-CDC AR-BANK#0088); conditions: Acinetobacter baumannii AR-BANK 0088
Description: as §1, §2, §3, §4

[3] = system: Acinetobacter baumannii (ATCC BAA-1605); conditions: Acinetobacter baumannii BAA-1605
Description: as §1, §2, §3, §4

[4] = system: Citrobacter freundii (ATCC 8090)
Description: as §1, §2, §3, §4

[5] = system: E. aerogenes (ATCC 13048); conditions: Enterobacter aerogenes ATCC-13048
Description: as §1, §2, §3, §4

E. cloacae (ATCC 13047) = conditions: Enterobacter cloacae ATCC-13047
Description: as §1, §2, §3, §4

E. coli (ATCC 10536) = conditions: Escherichia coli ATCC 10536
Description: as §1, §2, §3, §4

[6] = system: Enterobacter cloacae (ATCC BAA-1143); conditions: Enterobacter cloacae BAA-1143
Description: as §1, §2, §3, §4

[7] = system: Klebsiella pneumoniae (FDA-CDC AR-BANK#0160); conditions: Klebsiella pneumoniae AR-BANK#0160
Description: as §1, §2, §3, §4

[8] = system: P. aeruginosa (BCCM 27648); conditions: Pseudomonas aeruginosa BCCM27648
Description: as §1, §2, §3, §4

[9] = system: Pseudomonas aeruginosa (BCCM 27647); conditions: Pseudomonas aeruginosa BCCM27647
Description: as §1, §2, §3, §4

[10] = system: Salmonella choleraesuis (ATCC 10708); conditions: Salmonella choleraesuis ATCC 10708
Description: as §1, §2, §3, §4

[11] = system: Salmonella typhimurium (ATCC 13311); conditions: Salmonella typhimurium ATCC13311
Description: as §1, §2, §3, §4

[12] = system: Serratia marcescens (ATCC 13880)
Description: as §1, §2, §3, §4

[13] = system: Stenotrophomonas maltophilia (ATCC 13637)
Description: as §1, §2, §3, §4

[14] = compound 3 in combination with rifampicin

Structure (SMILES): N=C(N)c1ccc(CC[C@H]2CCC[C@@H](CCc3ccc(C(=N)N)cc3)C2)cc1 [Compound 3, 4,4′-(2,2′-((1R,3S)-cyclohexane-1,3-diyl)bis(ethane-2,1-diyl))dibenzimidamide]
- MIC ([1]; ATCC17978, substance alone): 25 µg/mL
- Combination Result [1, 14]: synergy (Synergy is defined as the FICI (Σ)≤0.5)
- FICI (Average) [1, 14]: 0.27
- Combination Result [2, 14]: synergy (Synergy is defined as the FICI (Σ)≤0.5)
- FICI (Average) [2, 14]: 0.31
- MIC ([2]; substance alone): 25 µg/mL
- Combination Result [3, 14]: synergy (Synergy is defined as the FICI (Σ)≤0.5)
- FICI (Average) [3, 14]: 0.31
- MIC ([3]; substance alone): 25 µg/mL
- MIC ([4]; ATCC8090, substance alone): 100 µg/mL
- Combination Result [4, 14]: synergy (Synergy is defined as the FICI (Σ)≤0.5)
- FICI (Average) [4, 14]: 0.19
- MIC ([5]; Klebsiella aerogenes, ATCC13048, substance alone): 100 µg/mL
- Combination Result [5, 14]: synergy (Synergy is defined as the FICI (Σ)≤0.5)
- FICI (Average) [5, 14]: 0.19
- MIC (E. cloacae (ATCC 13047); ATCC13047, substance alone): 100 µg/mL
- Combination Result (E. cloacae (ATCC 13047); [14]): synergy (Synergy is defined as the FICI (Σ)≤0.5)
- FICI (Average) (E. cloacae (ATCC 13047); [14]): 0.19
- MIC (E. coli (ATCC 10536); ATCC10536, substance alone): 6.25 µg/mL
- Combination Result (E. coli (ATCC 10536); [14]): synergy (Synergy is defined as the FICI (Σ)≤0.5)
- FICI (Average) (E. coli (ATCC 10536); [14]): 0.48
- Combination Result [6, 14]: synergy (Synergy is defined as the FICI (Σ)≤0.5)
- FICI (Average) [6, 14]: 0.19
- MIC ([6]; substance alone): 100 µg/mL
- Combination Result [7, 14]: synergy (Synergy is defined as the FICI (Σ)≤0.5)
- FICI (Average) [7, 14]: 0.19
- MIC ([7]; substance alone): 100 µg/mL
- Combination Result [8, 14]: additivity/
- FICI (Average) [8, 14]: 1.03
- MIC ([8]; substance alone): 25 µg/mL
- Combination Result [9, 14]: additivity/
- FICI (Average) [9, 14]: 1.03
- MIC ([9]; substance alone): 25 µg/mL
- MIC ([10]; Salmonella enterica, substance alone, read-out: MIC): 50 µg/mL
- Combination Result [10, 14]: synergy (Synergy is defined as the FICI (Σ)≤0.5)
- FICI (Average) [10, 14]: 0.32
- MIC ([11]; Salmonella enterica, substance alone): 12.5 µg/mL
- Combination Result [11, 14]: synergy (Synergy is defined as the FICI (Σ)≤0.5)
- FICI (Average) [11, 14]: 0.34
- MIC ([12]; ATCC13880, substance alone): > 100 µg/mL
- Combination Result [12, 14]: synergy (Synergy is defined as the FICI (Σ)≤0.5)
- FICI (Average) [12, 14]: 0.21
- MIC ([13]; ATCC13637, substance alone): 12.5 µg/mL
- Combination Result [13, 14]: synergy (Synergy is defined as the FICI (Σ)≤0.5)
- FICI (Average) [13, 14]: 0.39
